Like-named read-outs stand apart in the source and are kept apart here. Residues, ends and D or L forms follow the SMILES beside them. *: point of attachment. Bz = O=C(c1ccccc1)*
Experiments:
[1] = tested on: ACE; settings: disulfide formed on standing of aqueous solution; cited from earlier work
[2] = target: T1, ACE (Homo sapiens, UniProt P12821); settings: previously disclosed compounds of copending applications, read-out: I50, cited from earlier work
T1 construct: same enzyme (human urinary ACE); from tissue; host or cells: human urine (purified as described by Ryan et al., Tissue and Cell 10, 555 (1978))
T1 sequence (P12821 30-1232 limits assumed): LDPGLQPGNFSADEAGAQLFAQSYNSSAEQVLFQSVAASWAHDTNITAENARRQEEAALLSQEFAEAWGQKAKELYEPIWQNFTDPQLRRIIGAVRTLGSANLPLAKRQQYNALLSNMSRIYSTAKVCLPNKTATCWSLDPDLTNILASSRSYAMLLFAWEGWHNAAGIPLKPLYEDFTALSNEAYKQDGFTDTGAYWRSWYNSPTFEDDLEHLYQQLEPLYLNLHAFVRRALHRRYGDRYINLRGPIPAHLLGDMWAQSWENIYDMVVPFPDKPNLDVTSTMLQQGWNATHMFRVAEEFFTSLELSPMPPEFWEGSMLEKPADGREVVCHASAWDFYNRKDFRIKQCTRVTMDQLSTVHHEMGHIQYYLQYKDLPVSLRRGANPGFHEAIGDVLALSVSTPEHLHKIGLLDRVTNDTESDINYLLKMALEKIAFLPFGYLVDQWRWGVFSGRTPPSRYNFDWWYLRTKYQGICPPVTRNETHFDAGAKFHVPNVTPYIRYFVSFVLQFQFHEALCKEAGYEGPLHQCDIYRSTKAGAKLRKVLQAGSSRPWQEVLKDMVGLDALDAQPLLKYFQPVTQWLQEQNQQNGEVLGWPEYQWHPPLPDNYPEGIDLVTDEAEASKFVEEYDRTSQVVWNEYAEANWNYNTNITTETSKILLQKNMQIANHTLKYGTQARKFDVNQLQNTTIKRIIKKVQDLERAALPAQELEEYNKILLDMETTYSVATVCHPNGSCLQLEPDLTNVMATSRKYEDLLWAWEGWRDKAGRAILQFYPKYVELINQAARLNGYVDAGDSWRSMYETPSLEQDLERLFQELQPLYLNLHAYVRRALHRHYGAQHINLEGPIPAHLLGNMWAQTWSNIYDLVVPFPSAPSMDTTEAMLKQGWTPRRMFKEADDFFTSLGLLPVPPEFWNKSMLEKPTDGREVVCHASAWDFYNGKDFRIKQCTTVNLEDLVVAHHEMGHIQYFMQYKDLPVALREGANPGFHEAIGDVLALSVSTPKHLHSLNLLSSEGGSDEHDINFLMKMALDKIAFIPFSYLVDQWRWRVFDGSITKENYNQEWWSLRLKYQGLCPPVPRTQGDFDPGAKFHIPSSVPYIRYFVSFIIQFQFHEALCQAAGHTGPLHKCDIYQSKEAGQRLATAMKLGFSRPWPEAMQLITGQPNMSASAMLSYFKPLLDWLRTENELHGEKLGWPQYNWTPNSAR

[3] = target: T1, ACE; assay: ACE activity assay in vitro (I50, hydrolysis of [3H]-Benzoyl-GlyHisLeu); format: biochemical
Method: These factors include the source of enzyme, its purity, the substrate used and its concentration, and the composition of the assay buffer. All I50 data reported herein have been performed with the same assay system and same enzyme (human urinary ACE) and with an approximately 1/2 Km level of substrate and are therefore internaly consistent.
To initiate the assay, 40 μl of enzyme and 10 μl of water or inhibitor dissolved in water were preincubated for five minutes at 37° C. […] To terminate the reaction, 1 ml of 0.1M HCl was added, following which 1 ml of ethyl acetate was added. The mixture was agitated on a rotary mixer and centrifuged briefly to separate the phases.
An aliquot, 500μl, of the ethyl acetate layer was transferred to a liquid scintillation vial containing 10 ml of Riafluor, trademark New England Nuclear Corporation, Boston, Mass. For determination of I50 values, enzyme activity in the presence of inhibitor at a series of different concentrations was compared to activity in the absence of inhibitor.

[4] = tested on: mean arterial blood pressure response to angiotensin I; assay: Oral effectiveness: blood pressure response to angiotensin I in anesthetized rats; format: in vivo; settings: rat, oral 20 μmol/kg, -5 min (pre-dose control, 25 mm Hg)
Method: (§1) Rats (210-290 g body weight) were fasted overnight and then anesthetized with intraperitoneal pentobarbital, 50-60 mg/kg. Tracheostomy was performed and the animals were ventilated mechanically. A cannula was inserted into a femoral vein for injection of angiotensin I, and a second cannula was inserted into a common carotid artery for direct measurement of arterial blood pressure. Heparin, 1,000 units, was injected via the femoral vein to prevent coagulation. Blood pressure was measured with a pressure transducer connected to a polygraph. The rats were injected with […] of angiotensin I in 20μl of 0.9 g % NaCl; an amount of angiotensin I sufficient to raise mean arterial blood pressure by 25 mm Hg. After the responsiveness of a given rat to angiotensin I was established, the named compound at 20 μmol/kg (drug dissolved in 0.15 ml of H2 O plus 10μl of 1 N NaHCO3), was given via a stomach tube. At timed intervals, the effects of 400 ng/kg of angiotensin I on mean arterial blood pressure were tested.

[5] = tested on: mean arterial blood pressure response to angiotensin I; assay: Intravenous effectiveness: blood pressure response to angiotensin I in anesthetized rats; format: in vivo; settings: rat, in words
Method: as §1, with “tested. Results are shown below:” for “tested.”
Anesthetized rats were prepared as described in Example 18. The named compound was administered intravenously via a femoral vein, at the stated dose, in 15 μl of 0.01 N sodium bicarbonate. […] The time required for recovery of one half the lost responsiveness to angiotensin I, following injection of the named compound, is designated t1/2. […]

For `C[C@H](CSSC[C@@H](C)C(=O)N1CCC[C@H]1C(=O)O)C(=O)N1CCC[C@H]1C(=O)O` [disulfide], the “ACE inhibition by the disulfide dimer” value [1] is listed as “largely inactive as an inhibitor”.

In the case of `CC(SC(=O)[C@H](Cc1ccccc1)NC(=O)c1ccccc1)C(=O)N1CC=C[C@H]1C(=O)O` (stereo partly drawn) [N-(2-benzoylphenylalanylthiopropanoyl)-L-3,4-dehydroproline], the IC50 ([2]; for racemic compound) is listed as 3 nM.

For `O=C(N[C@@H](Cc1ccccc1)C(=O)SCCC(=O)N1CCC[C@H]1C(=O)O)c1ccccc1`, the IC50 ([2]; approximate) is given as roughly 700 nM.

`CC(C)C[C@H](NC(=O)[C@H](Cc1cnc[nH]1)NC(=O)CNC(=O)c1ccccc1)C(=O)O` [Benzoyl-GlyHisLeu, reference compound] (Bz-Gly-His-Leu-OH) showed a Km ([3]; substrate Benzoyl-GlyHisLeu, 0.05M Hepes pH 8.0, 0.1M NaCl, 0.75M Na2 SO4) of roughly 200 µM.

For `C[C@H](CSC(=O)[C@H](Cc1c[nH]c2ccccc12)NC(=O)c1ccccc1)C(=O)N1CCC[C@H]1C(=O)O` [N^α -[3-(Nα-benzoyl-L-tryptophylthio)-2-D-methylpropanoyl]-L-proline], the “Blood Pressure Response to 400 ng/kg of Angiotensin I” value [4] was 100 % of Control, the IC50 ([3]; ACE purified from human urine, pH 8.0, 37° C., Benzoyl-GlyHisLeu 1×10^-4 M) was 9.4 nM and the “Response to intravenous administration (responsiveness to Angiotensin I, 400 ng/kg)” value [5] was “rapid decrease in responsiveness to Angiotensin I, 400 ng/kg, followed by a gradual recovery to the pretreatment level of responsiveness”.

From patent US4690937A, “Anti-hypertensive agents” (University of Miami, priority 1979, dated 1987)
